Activity calls are given as the source filed them. The rule behind the calls is not given here.
Legend:
K562 [1] = assay: Antitumor activity against human K562 cells assessed as inhibition of cell growth; type: functional, cell-based
HL-60 = assay: Antitumor activity against human HL-60 cells assessed as inhibition of cell growth; type: functional, cell-based
MCF7 = assay: Antitumor activity against human MCF7 cells assessed as inhibition of cell growth; type: functional, cell-based
K562 [2] = assay: Antimigratory activity against human K562 cells assessed as decrease in cell migration at 2.5 to 10 uM; type: functional, cell-based; conditions: dose 2.5-10 µM
[3] = target: Tyrosine-protein kinase ABL1 (Homo sapiens) (UniProt P00519); assay: Inhibition of ABL1 phosphorylation in human K562 cells at 2.5 to 10 uM by Western blot analysis; type: cell-based; conditions: dose 2.5-10 µM
[4] = target: Crk-like protein (Homo sapiens) (UniProt P46109); assay: Inhibition of CRKL phosphorylation in human K562 cells at 2.5 to 10 uM by Western blot analysis; type: cell-based; conditions: dose 2.5-10 µM
K562 [5] = assay: Induction of apoptosis in human K562 cells assessed as increase in caspase-3 expression by Western blot analysis; type: functional, cell-based; conditions: dose 2.5-10 µM
K562 [6] = assay: Induction of apoptosis in human K562 cells assessed as increase in cleaved caspase-3 expression by Western blot analysis; type: functional, cell-based; conditions: dose 2.5-10 µM
K562 [7] = assay: Induction of apoptosis in human K562 cells assessed as viable cells at 10 uM incubated for 24 hrs by Annexin V-FITC staining based flow cytometric analysis (reference value: 93.4 % ); type: functional; conditions: read-out: Activity
K562 [8] = assay: Induction of apoptosis in human K562 cells assessed as early apoptotic cells at 10 uM incubated for 24 hrs by Annexin V-FITC staining based flow cytometric analysis (reference value: 3.90 % ); type: functional
K562 [9] = assay: Induction of apoptosis in human K562 cells assessed as late apoptotic cells at 10 uM incubated for 24 hrs by Annexin V-FITC staining based flow cytometric analysis (reference value: 1.82 % ); type: functional
K562 [10] = assay: Induction of apoptosis in human K562 cells assessed as necrotic cells at 10 uM incubated for 24 hrs by Annexin V-FITC staining based flow cytometric analysis (reference value: 0.82 % ); type: functional
K562 [11] = assay: Induction of apoptosis in human K562 cells assessed as total apoptotic cells at 10 uM incubated for 24 hrs by Annexin V-FITC staining based flow cytometric analysis (reference value: 5.72 % ); type: functional
K562 [12] = assay: Induction of apoptosis in human K562 cells assessed as viable cells at 2.5 uM incubated for 24 hrs by Annexin V-FITC staining based flow cytometric analysis (reference value: 93.4 % ); type: functional; conditions: read-out: Activity
K562 [13] = assay: Induction of apoptosis in human K562 cells assessed as early apoptotic cells at 2.5 uM incubated for 24 hrs by Annexin V-FITC staining based flow cytometric analysis (reference value: 3.90 % ); type: functional
K562 [14] = assay: Induction of apoptosis in human K562 cells assessed as late apoptotic cells at 2.5 uM incubated for 24 hrs by Annexin V-FITC staining based flow cytometric analysis (reference value: 1.82 % ); type: functional
K562 [15] = assay: Induction of apoptosis in human K562 cells assessed as necrotic cells at 2.5 uM incubated for 24 hrs by Annexin V-FITC staining based flow cytometric analysis (reference value: 0.82 % ); type: functional
K562 [16] = assay: Induction of apoptosis in human K562 cells assessed as viable cells at 5 uM incubated for 24 hrs by Annexin V-FITC staining based flow cytometric analysis (reference value: 93.4 % ); type: functional; conditions: read-out: Activity
K562 [17] = assay: Induction of apoptosis in human K562 cells assessed as early apoptotic cells at 5 uM incubated for 24 hrs by Annexin V-FITC staining based flow cytometric analysis (reference value: 3.90 % ); type: functional
K562 [18] = assay: Induction of apoptosis in human K562 cells assessed as late apoptotic cells at 5 uM incubated for 24 hrs by Annexin V-FITC staining based flow cytometric analysis (reference value: 1.82 % ); type: functional
K562 [19] = assay: Induction of apoptosis in human K562 cells assessed as necrotic cells at 5 uM incubated for 24 hrs by Annexin V-FITC staining based flow cytometric analysis (reference value: 0.82 % ); type: functional

Tyrosine-protein kinase ABL1 (Homo sapiens), sequence (P00519 whole entry): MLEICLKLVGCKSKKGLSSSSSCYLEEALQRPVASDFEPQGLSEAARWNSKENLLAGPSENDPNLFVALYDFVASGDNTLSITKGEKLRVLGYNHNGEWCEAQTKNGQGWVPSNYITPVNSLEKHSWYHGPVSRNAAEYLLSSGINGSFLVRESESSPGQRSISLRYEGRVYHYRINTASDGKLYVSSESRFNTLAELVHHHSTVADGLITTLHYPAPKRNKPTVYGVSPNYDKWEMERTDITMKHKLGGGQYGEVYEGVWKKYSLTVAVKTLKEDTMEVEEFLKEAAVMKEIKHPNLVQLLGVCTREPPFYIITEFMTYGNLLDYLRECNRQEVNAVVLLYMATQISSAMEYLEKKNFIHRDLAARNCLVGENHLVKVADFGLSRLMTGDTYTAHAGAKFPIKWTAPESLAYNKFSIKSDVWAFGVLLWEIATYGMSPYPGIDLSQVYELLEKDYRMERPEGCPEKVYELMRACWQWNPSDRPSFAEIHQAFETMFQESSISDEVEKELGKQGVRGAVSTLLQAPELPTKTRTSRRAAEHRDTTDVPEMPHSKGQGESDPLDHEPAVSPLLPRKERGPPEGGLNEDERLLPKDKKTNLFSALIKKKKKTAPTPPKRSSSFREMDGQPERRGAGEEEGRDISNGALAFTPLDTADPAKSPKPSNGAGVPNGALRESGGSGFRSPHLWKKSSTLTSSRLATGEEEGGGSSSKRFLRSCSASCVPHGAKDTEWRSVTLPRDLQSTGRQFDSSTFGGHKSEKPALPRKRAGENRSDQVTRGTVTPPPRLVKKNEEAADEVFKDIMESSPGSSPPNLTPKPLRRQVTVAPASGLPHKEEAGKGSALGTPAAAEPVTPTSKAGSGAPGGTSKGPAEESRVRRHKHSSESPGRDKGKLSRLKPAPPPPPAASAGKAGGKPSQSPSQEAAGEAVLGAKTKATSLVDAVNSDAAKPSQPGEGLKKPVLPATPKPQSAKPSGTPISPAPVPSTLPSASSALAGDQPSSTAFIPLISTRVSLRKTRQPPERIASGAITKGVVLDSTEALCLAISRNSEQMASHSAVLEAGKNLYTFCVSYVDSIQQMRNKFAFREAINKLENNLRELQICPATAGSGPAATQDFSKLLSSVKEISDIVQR
Crk-like protein (Homo sapiens), sequence (P46109 whole entry): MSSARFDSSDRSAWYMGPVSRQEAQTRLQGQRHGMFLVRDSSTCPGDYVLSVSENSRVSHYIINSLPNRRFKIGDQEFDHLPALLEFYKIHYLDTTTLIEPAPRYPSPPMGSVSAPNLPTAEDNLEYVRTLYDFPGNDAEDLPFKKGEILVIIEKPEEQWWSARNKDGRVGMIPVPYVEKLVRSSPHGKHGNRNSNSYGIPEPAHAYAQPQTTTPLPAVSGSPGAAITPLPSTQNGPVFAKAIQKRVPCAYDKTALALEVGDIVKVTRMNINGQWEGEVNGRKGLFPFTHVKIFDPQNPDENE

Row | Structure (SMILES) | IC50 (K562 [1]) [µM] | IC50 (HL-60) [µM] | IC50 (MCF7) [µM] | also measured
1 | Cc1cn(-c2cc(NC(=O)c3ccc(CN4CCOC[C@@H]4C)cc3)cc(C(F)(F)F)c2)cn1 | 24.1 | 16.9 | 24.2 | –
2 | Cc1cn(-c2cc(NC(=O)c3ccc(CN4CCN(C)CC4)cc3)ccc2C)cn1 | 39.7 | > 50 | > 50 | –
3 | Cc1cn(-c2cccc(NC(=O)c3ccc(CN4CCN(C)CC4)cc3)c2)c(C)n1 | 15.8 | 36 | > 50 | –
4 | CN1CCN(Cc2ccc(C(=O)Nc3cc(-n4cnc(C#N)c4)cc(C(F)(F)F)c3)cc2)CC1 | 13.3 | 18.6 | 15.6 | –
5 | CCCCN1CCN(Cc2ccc(C(=O)Nc3cc(-n4ccnc4)cc(C(F)(F)F)c3)cc2)CC1 | 22.4 | 34.9 | 30.2 | –
6 | CCCCN1CCN(Cc2ccc(C(=O)Nc3ccc(C)c(-n4cnc(C)c4)c3)cc2)CC1 | 33.2 | > 50 | > 50 | –
7 | COc1ccc(NC(=O)c2ccc(CN3CCN(C)CC3)cc2)cc1-n1cc(C)nc1C | 31.4 | 23.4 | 29.1 | –
8 | Cc1cn(-c2cc(NC(=O)c3ccc(CN4CC(C)OC(C)C4)cc3)cc(C(F)(F)F)c2)cn1 (stereo unspecified) | 13.2 | 22.1 | 40.6 | –
9 | Cc1ccc(NC(=O)c2ccc(CN3CCN(C)CC3)cc2)cc1Nc1nccc(-c2cccnc2)n1 [IMATINIB] | 14 | 17.2 | 25.6 | viability at 10 µM (K562 [7]): 76.7%; Activity (K562 [8]): 4.9%; Activity (K562 [9]): 18.2%; Activity (K562 [10]): 0.2%; Activity (K562 [11]): 23.1%
10 | CN1CCN(Cc2ccc(C(=O)Nc3cc(-n4ccnc4)cc(C(F)(F)F)c3)cc2)CC1 | 15.4 | 18.8 | 29 | –
11 | Cc1cn(-c2cc(NC(=O)c3ccc(CN4CCN(C)CC4)cc3)cc(C(F)(F)F)c2)c(C)n1 | 10.8 | 17 | 9.61 | –

Now from value to compound, other results behind:

Row | IC50 (K562 [1]) [µM] | IC50 (HL-60) [µM] | IC50 (MCF7) [µM] | Structure (SMILES) | also measured
12 | 6.03 | 17.9 | 20.1 | CCCCN1CCN(Cc2ccc(C(=O)Nc3cc(-n4cnc(C)c4)cc(C(F)(F)F)c3)cc2)CC1 | Activity (K562 [2]): Active; inhibition [3]: Active; inhibition [4]: Active; Activity (K562 [5]): Dose-Dependent Effect; Activity (K562 [6]): Dose-Dependent Effect
13 | 14.5 | 13.3 | > 50 | Cc1cn(-c2cc(NC(=O)c3ccc(CN4CCN(C(=O)C5CC5)CC4)cc3)cc(C(F)(F)F)c2)cn1 | –
14 | 13.3 | 17.2 | > 50 | CCN1CCN(Cc2ccc(C(=O)Nc3cc(-n4cnc(C)c4)cc(C(F)(F)F)c3)cc2)CC1 | –
15 | > 50 | > 50 | > 50 | CC(=O)N1CCN(Cc2ccc(C(=O)Nc3cc(-n4cnc(C)c4)cc(C(F)(F)F)c3)cc2)CC1 | –
16 | 13.4 | 24.9 | 37.9 | Cc1cn(-c2cc(NC(=O)c3ccc(CN4CCCC4)cc3)cc(C(F)(F)F)c2)cn1 | –
17 | 13.6 | 21.2 | 19 | Cc1cn(-c2cc(NC(=O)c3ccc(CN4CCN(C)CC4)cc3)cc(C(F)(F)F)c2)cn1 | –
18 | 23.6 | > 50 | > 50 | Cc1cn(-c2cc(NC(=O)c3ccc(CN4CCOCC4)cc3)cc(C(F)(F)F)c2)cn1 | –
19 | 10.5 | 14.8 | 13.1 | Cc1cn(-c2cc(NC(=O)c3ccc(CN4CCN(C(C)C)CC4)cc3)cc(C(F)(F)F)c2)cn1 | –
20 | 16.8 | 25.8 | > 50 | Cc1cn(-c2cc(NC(=O)c3ccc(CN4CCOC(C)C4)cc3)cc(C(F)(F)F)c2)cn1 (stereo unspecified) | –
21 | 5.66 | 16.8 | 23.5 | Cc1cn(-c2cc(NC(=O)c3ccc(CN4CCN(C(C)(C)C)CC4)cc3)cc(C(F)(F)F)c2)cn1 | Activity (K562 [2]): Active; viability at 2.5 µM (K562 [12]): 86.3%; Activity (K562 [13]): 1.9%; Activity (K562 [14]): 10.84%; Activity (K562 [15]): 1%; viability at 5 µM (K562 [16]): 71.1%; Activity (K562 [17]): 2.8%; Activity (K562 [18]): 22.68%; Activity (K562 [19]): 3.44%; viability at 10 µM (K562 [7]): 57.9%; Activity (K562 [8]): 3.02%; Activity (K562 [9]): 34.56%; Activity (K562 [10]): 4.56%; Activity (K562 [11]): 37.58%; inhibition [3]: Active; inhibition [4]: Active; Activity (K562 [5]): Dose-Dependent Effect; Activity (K562 [6]): Dose-Dependent Effect

— ChEMBL document CHEMBL5236671, “Synthesis and biological evaluation of novel aromatic amide derivatives as potential BCR-ABL inhibitors” (Bioorg Med Chem Lett, 2023)
